Reference: PMC8657793, “Synthesis, In Vitro and In Silico Anticancer Activity of New 4-Methylbenzamide Derivatives Containing 2,6-Substituted Purines as Potential Protein Kinases Inhibitors” (International Journal of Molecular Sciences, 2021)

How the values were obtained:
[1] = system: RPMI 1788 (B lymphocyte, normal human lymphoblastoid cells); experiment: MTT assay on normal cells RPMI 1788; type: cell-based
Description: (§1) To determine the selectivity of the synthesized compounds 7–16 toward various cancer cells and normal human cells, the anti-proliferative activity against K562 (chronic myelogenous leukemia), HL-60 (promyelocytic leukemia), MCF-7 (breast adenocarcinoma), HeLa (cervix carcinoma), HepG2 (human liver cancer), A549 (lung carcinoma), OKP-GS (renal cell carcinoma), and normal cells RPMI 1788 (B lymphocyte, the human cell line) was investigated.
(§2) Each in vitro experiment was performed at least in triplicate and the standard deviation of absorbance was less than 10% of the mean. For the in vitro assays, a stock solution (1% DMSO in the appropriate buffer with the tested compound diluted under sonication) was prepared from which several dilutions were made with the appropriate buffer.
Human cell lines were obtained from the Institute of Cytology, Russian Academy of Sciences. The cell lines studied were maintained in RPMI 1640 medium (AppliChem, Darmstadt, Germany) supplemented with 20% (HL-60, RPMI 1788) fetal calf serum (HyClone, Cramlington, UK), in DMEM (A 549) and Eagle’s MEM (AppliChem) (MCF7, HeLa) with 10% fetal calf serum (HyClone). Cells were cultivated at 37 °C in a humidified atmosphere of 5% CO2. Cellular sensitivities to synthesized compounds and standards were measured with the MTT assay. Cells were plated in triplicate in 96-well plates (10^5 cells/well for suspended cell cultures and 5 × 10^3 cells/well for monolayer cultures); on the same day (suspended cell cultures) or on the following day (monolayer cultures), compounds were added at the appropriate dilutions. […] The reference drugs were imatinib, sorafenib and nilotinib. Plates were incubated under standard conditions for 48 h. Thereafter, 10 μL MTT (Sigma) in phosphate-buffered saline (5 mg/mL) was added. The plates were incubated for an additional 4 h and 150 μL dimethylsulphoxide (DMSO) was added to dissolve the formazan crystals. The optical density was read on a HALO MPR-95 Microplate Reader (Dynamica Scientific Ltd., Melbourne, Victoria, Australia) at 570 nm. The antiproliferative effects were taken as degrees of inhibition of tumor cells (%). The average of three parallel measurements was calculated for each concentration of test compound. The degree of cell growth suppression was plotted as a function of the logarithm of the concentration. The half maximal inhibitory concentration (IC50) was determined graphically for active compounds.

Bcr–Abl1 kinase = biological target: T1, Bcr–Abl1 kinase (Homo sapiens, UniProt P00519); experiment: Abl1 Kinase Enzyme System / ADP-Glo kinase assay; type: biochemical; settings: ATP 50 μM; for inhibition at 0.5 µM: 0.5 µM compound; for inhibition at 10 µM: 10 µM compound
T1 construct: purchased Promega
Description: (§3) At the end, 10 μL of kinase detection reagent was added into the well and incubated for 30 min to produce a luminescence signal.

EGFR = biological target: T2, EGFR (Homo sapiens, UniProt P00533); experiment: Kinase Selectivity Profiling System TK-1 / ADP-Glo, EGFR; type: biochemical
T2 construct: purchased Promega
Description: as §3

HER2 = biological target: T3, HER2 (Homo sapiens, UniProt P04626); experiment: Kinase Selectivity Profiling System TK-1 / ADP-Glo, HER2; type: biochemical
T3 construct: purchased Promega
Description: as §3

HER4 = biological target: T4, HER4 (Homo sapiens, UniProt Q15303); experiment: Kinase Selectivity Profiling System TK-1 / ADP-Glo, HER4; type: biochemical
T4 construct: purchased Promega
Description: as §3

IGF1R = biological target: T5, IGF1R (Homo sapiens, UniProt P08069); experiment: Kinase Selectivity Profiling System TK-1 / ADP-Glo, IGF1R; type: biochemical
T5 construct: purchased Promega
T5 sequence (P08069 31-1367): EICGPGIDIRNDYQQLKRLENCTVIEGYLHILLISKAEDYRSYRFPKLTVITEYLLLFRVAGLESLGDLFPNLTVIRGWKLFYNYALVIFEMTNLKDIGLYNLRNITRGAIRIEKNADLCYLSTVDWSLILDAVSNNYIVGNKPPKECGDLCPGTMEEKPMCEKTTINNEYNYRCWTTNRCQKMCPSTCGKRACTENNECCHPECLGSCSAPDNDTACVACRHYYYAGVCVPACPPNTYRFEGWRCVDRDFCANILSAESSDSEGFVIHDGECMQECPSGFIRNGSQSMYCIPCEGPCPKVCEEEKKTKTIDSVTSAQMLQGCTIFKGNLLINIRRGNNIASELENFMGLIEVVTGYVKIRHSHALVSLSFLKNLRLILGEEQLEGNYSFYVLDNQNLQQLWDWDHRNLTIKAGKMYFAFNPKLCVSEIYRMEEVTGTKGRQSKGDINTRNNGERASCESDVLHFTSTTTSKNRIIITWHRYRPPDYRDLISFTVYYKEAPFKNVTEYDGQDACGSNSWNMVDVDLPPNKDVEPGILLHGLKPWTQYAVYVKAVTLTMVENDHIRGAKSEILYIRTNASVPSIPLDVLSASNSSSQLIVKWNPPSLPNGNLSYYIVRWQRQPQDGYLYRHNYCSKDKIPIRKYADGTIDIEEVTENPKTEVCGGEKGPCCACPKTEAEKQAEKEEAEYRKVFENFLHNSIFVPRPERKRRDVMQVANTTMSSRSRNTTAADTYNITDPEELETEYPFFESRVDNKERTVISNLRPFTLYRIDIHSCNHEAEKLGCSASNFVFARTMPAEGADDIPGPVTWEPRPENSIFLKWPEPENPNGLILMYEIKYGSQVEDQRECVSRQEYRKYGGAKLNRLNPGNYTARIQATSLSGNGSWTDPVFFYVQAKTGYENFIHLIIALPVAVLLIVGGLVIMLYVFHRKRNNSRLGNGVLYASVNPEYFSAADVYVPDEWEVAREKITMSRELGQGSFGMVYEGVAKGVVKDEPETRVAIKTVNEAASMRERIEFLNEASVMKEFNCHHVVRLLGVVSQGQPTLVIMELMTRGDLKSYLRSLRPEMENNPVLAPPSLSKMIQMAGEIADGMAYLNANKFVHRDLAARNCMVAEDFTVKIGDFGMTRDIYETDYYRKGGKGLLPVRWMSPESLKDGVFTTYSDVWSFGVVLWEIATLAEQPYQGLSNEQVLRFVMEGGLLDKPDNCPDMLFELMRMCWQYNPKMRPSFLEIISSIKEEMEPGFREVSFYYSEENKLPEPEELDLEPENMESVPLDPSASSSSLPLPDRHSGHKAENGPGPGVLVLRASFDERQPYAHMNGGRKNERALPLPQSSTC
Description: as §3

InsR = biological target: T6, InsR (Homo sapiens, UniProt P06213); experiment: Kinase Selectivity Profiling System TK-1 / ADP-Glo, InsR; type: biochemical
T6 construct: purchased Promega
T6 sequence (P06213 28-1382): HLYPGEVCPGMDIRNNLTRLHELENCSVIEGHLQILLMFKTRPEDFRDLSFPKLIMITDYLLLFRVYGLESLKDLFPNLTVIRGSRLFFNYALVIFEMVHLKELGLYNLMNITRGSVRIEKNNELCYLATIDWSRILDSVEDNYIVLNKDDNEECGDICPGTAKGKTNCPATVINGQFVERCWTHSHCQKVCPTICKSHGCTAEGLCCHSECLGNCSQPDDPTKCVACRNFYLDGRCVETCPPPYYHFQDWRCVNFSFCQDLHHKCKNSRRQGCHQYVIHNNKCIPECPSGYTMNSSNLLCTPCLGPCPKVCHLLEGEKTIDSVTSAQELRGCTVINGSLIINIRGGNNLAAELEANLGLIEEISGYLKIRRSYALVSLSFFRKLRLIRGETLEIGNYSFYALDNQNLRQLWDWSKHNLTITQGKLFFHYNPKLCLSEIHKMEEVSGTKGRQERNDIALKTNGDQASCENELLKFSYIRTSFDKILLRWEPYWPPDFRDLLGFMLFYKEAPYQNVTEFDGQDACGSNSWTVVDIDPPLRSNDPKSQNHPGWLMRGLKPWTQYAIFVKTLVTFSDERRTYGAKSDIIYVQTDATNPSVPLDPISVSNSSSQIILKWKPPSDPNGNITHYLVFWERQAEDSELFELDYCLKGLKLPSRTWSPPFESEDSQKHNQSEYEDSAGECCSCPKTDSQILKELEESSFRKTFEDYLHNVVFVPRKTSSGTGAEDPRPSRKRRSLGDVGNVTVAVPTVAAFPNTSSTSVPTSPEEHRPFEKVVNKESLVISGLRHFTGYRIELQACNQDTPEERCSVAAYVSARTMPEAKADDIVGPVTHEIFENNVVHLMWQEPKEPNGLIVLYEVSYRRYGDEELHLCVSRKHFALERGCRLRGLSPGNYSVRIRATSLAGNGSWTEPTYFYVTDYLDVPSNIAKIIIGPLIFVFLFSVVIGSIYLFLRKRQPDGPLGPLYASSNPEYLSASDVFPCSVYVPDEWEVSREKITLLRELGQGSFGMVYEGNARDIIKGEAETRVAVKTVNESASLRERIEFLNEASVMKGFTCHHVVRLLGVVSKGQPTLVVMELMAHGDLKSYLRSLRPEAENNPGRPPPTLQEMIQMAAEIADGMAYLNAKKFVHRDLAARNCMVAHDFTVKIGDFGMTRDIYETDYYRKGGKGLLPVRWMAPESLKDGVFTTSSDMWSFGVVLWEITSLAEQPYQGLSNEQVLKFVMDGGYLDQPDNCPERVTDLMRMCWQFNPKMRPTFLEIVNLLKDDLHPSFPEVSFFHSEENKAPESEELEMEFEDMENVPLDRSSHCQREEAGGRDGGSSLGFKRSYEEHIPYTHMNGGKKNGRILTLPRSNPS
Description: as §3

KDR (VEGFR-2) = biological target: T7, KDR (VEGFR-2) (Homo sapiens, UniProt P35968); experiment: Kinase Selectivity Profiling System TK-1 / ADP-Glo, KDR; type: biochemical
T7 construct: purchased Promega
T7 sequence (P35968 20-1356): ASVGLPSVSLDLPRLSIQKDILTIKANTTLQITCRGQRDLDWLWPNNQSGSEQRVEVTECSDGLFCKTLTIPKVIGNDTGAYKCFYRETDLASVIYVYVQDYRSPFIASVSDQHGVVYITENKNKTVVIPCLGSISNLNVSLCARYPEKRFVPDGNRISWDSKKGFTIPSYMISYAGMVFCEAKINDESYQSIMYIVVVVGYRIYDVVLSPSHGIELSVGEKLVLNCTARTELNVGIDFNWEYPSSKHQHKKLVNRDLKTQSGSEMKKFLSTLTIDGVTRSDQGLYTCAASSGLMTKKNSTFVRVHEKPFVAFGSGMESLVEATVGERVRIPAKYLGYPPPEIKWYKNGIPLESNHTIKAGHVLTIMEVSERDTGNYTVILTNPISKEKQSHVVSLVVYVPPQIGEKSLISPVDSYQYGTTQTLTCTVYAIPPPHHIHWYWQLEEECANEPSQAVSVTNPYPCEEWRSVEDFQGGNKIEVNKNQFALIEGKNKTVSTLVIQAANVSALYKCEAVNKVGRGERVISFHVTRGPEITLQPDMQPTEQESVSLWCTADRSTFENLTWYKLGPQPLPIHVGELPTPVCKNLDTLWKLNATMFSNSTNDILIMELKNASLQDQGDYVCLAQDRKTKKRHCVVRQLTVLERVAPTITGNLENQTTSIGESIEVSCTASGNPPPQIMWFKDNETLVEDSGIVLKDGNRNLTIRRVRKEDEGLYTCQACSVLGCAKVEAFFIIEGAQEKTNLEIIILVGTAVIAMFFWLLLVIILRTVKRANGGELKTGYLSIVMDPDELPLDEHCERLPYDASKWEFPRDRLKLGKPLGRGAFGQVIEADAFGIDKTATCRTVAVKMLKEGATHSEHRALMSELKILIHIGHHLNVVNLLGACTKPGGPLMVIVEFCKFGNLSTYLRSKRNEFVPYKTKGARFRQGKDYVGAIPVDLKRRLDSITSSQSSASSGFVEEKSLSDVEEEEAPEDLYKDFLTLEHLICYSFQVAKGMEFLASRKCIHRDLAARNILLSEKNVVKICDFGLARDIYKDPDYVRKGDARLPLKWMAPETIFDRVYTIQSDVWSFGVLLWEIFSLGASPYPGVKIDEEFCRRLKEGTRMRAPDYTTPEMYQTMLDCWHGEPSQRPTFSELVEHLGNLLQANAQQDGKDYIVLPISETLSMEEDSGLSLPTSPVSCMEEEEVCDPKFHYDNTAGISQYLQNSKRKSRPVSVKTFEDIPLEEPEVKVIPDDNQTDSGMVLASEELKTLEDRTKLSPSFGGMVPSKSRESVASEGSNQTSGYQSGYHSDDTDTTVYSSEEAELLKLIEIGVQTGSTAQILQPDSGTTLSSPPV
Description: as §3

PDGFRα = biological target: T8, PDGFRα (Homo sapiens, UniProt P16234); experiment: Kinase Selectivity Profiling System TK-1 / ADP-Glo, PDGFRα; type: biochemical
T8 construct: purchased Promega
Source text: Considering the presence of a purine ring in the compounds under study, type 1 binding to protein kinases could be expected. We investigated the kinase selectivity of targeted compounds 7–16 against eight receptor tyrosine kinases including EGFR, HER2 and HER4 (epidermal growth factor receptors), IGF1R (insulin-like growth factor 1 receptor), InsR (insulin receptor), KDR (vascular endothelial growth factor receptor 2—VEGFR-2), and PDGFRα and PDGFRβ (platelet-derived growth factor receptors). The assay was performed using the Kinase Selectivity Profiling System TK-1 (Promega, Madison, WI, USA) and ADP-Glo™ Kinase assay kit (Promega, Madison, WI, USA). Kinase activity was measured by quantifying the […] following a kinase reaction. Enzymatic activity inhibition percentage caused by studied compounds was evaluated at the single concentration of 1 μM.
The Abl1 inhibitory activity assay was performed using Abl1 Kinase Enzyme System (Promega, Madison, WI, USA) and ADP-Glo™ Kinase assay kit (Promega, Madison, WI, USA) according to the Technical Manual. The general procedure was as follows: kinase (2.5 ng/reaction) was incubated with substrate (1 μg), compound (0.5 and 10µM) and ATP (50 μM) in a commercial buffer solution with a reaction volume of 5 μL. In every experiment, no-enzyme and no-compound control reactions were included to represent background luminescence (0% activity) and uninhibited kinase activity (100% activity), respectively. The assay 384-well plate was incubated at room temperature for 1 h. Afterwards, 5μL of ADP-Glo reagent was added into each well to stop the reaction and consume the […] within 40 min. At the end, 10 μL of kinase detection reagent was added into the well and incubated for 30 min to produce a luminescence signal. Kinase activity assays were performed in triplicate at each inhibitor concentration. The luminescence was measured with the help of a Tecan Infinite M200 Plate Reader. The luminescence data were analyzed using the computer software, Magellan™. Percent kinase activity (KA) was calculated by subtracting the average no-enzyme control luminescence values from all kinase-containing reactions with or without compound, then converting these net luminescence values to percent activity based on the no-compound control reactions representing 100% kinase activity. Inhibition (I, %) was calculated as 100%-KA.
The single-dose screening of kinase selectivity was performed using Kinase Selectivity Profiling System TK-1 (Promega, Madison, WI, USA) and ADP-Glo™ Kinase assay kit (Promega, Madison, WI, USA) according to Technical Manual. Kinase Selectivity Profiling System TK-1 includes a set of kinases from the tyrosine kinase family (EGFR, HER2, HER4, IGF1R, InsR, KDR, PDGFα, PDGFβ) in 8-tube strip format. The general procedure was as follow: kinase working stock (2 µL/reaction) was incubated with ATP/substrate working stock (1 µL) and compound (1 µM) in a commercial buffer solution with a reaction volume of 5 μL. The reaction conditions and inhibition (%) calculation were the same as in Section 3.3.1. Kinase activity assays were performed in duplicate at each inhibitor.

PDGFRβ = biological target: T9, PDGFRβ (Homo sapiens, UniProt P09619); experiment: Kinase Selectivity Profiling System TK-1 / ADP-Glo, PDGFRβ; type: biochemical
T9 construct: purchased Promega
T9 sequence (P09619 33-1106): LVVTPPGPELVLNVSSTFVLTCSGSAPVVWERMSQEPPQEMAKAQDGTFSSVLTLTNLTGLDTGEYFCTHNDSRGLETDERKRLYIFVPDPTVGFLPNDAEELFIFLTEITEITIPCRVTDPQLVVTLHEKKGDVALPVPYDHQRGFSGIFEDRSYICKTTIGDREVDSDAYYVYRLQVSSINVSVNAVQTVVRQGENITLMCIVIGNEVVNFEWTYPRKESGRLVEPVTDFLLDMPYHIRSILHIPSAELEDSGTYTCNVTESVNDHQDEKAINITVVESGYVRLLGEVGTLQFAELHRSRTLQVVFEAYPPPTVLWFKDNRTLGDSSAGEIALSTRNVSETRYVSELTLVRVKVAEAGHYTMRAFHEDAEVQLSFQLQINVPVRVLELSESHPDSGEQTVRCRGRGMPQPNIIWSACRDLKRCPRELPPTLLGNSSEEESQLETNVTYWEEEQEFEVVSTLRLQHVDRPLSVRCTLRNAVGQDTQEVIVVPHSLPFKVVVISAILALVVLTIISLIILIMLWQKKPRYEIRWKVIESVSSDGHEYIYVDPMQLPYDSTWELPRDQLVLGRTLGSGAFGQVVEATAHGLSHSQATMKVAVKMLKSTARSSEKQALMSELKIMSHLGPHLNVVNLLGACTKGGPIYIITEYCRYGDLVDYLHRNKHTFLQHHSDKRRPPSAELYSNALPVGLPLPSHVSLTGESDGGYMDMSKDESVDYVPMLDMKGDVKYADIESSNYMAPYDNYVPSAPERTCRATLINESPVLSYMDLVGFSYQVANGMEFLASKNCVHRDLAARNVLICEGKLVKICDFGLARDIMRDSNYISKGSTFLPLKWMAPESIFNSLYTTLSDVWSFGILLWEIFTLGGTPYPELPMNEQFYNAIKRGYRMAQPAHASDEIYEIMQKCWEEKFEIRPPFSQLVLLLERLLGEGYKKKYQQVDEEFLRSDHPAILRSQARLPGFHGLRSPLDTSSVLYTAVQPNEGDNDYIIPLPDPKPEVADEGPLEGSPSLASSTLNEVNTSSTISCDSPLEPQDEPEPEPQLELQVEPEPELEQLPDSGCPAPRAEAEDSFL
Description: as §3

[2] = system: HL-60 (promyelocytic leukemia); experiment: MTT anti-proliferative assay, HL-60; type: cell-based; settings: Homo sapiens, 48 h
Description: (§4) For the in vitro assays, a stock solution (1% DMSO in the appropriate buffer with the tested compound diluted under sonication) was prepared from which several dilutions were made with the appropriate buffer.
(§5) Human cell lines were obtained from the Institute of Cytology, Russian Academy of Sciences. […] Plates were incubated under standard conditions for 48 h.

[3] = system: K562 (chronic myelogenous leukemia); experiment: MTT anti-proliferative assay, K562; type: cell-based; settings: Homo sapiens, 48 h
Description: as §4, §5

[4] = system: OKP-GS (renal cell carcinoma); experiment: MTT anti-proliferative assay, OKP-GS; type: cell-based; settings: Homo sapiens, 48 h
Description: as §1, §2
Human cell lines were obtained from the Institute of Cytology, Russian Academy of Sciences. The cell lines studied were maintained in RPMI 1640 medium (AppliChem, Darmstadt, Germany) supplemented with 20% (HL-60, RPMI 1788) fetal calf serum (HyClone, Cramlington, UK), in DMEM (A 549) and Eagle’s MEM (AppliChem) (MCF7, HeLa) with 10% fetal calf serum (HyClone). Cells were cultivated at 37 °C in a humidified atmosphere of 5% CO2. Cellular sensitivities to synthesized compounds and standards were measured with the MTT assay. Cells were plated in triplicate in 96-well plates (10^5 cells/well for suspended cell cultures and 5 × 10^3 cells/well for monolayer cultures); on the same day (suspended cell cultures) or on the following day (monolayer cultures), compounds were added at the appropriate dilutions. Anti-proliferative activity was studied at concentrations 0.1–50.0 µM. The reference drugs were imatinib, sorafenib and nilotinib. Plates were incubated under standard conditions for 48 h. Thereafter, 10 μL MTT (Sigma) in phosphate-buffered saline (5 mg/mL) was added. The plates were incubated for an additional 4 h and 150 μL dimethylsulphoxide (DMSO) was added to dissolve the formazan crystals. The optical density was read on a HALO MPR-95 Microplate Reader (Dynamica Scientific Ltd., Melbourne, Victoria, Australia) at 570 nm. The antiproliferative effects were taken as degrees of inhibition of tumor cells (%). The average of three parallel measurements was calculated for each concentration of test compound. The degree of cell growth suppression was plotted as a function of the logarithm of the concentration. The half maximal inhibitory concentration (IC50) was determined graphically for active compounds.

Structure (SMILES) | inhibition at 0.5 µM (Bcr–Abl1 kinase) [%] | inhibition at 10 µM (Bcr–Abl1 kinase) [%] | inhibition at 1 µM (EGFR) [%] | inhibition at 1 µM (HER2) [%] | inhibition at 1 µM (HER4) [%] | inhibition at 1 µM (IGF1R) [%] | inhibition at 1 µM (InsR) [%] | inhibition at 1 µM (KDR (VEGFR-2)) [%] | inhibition at 1 µM (PDGFRα) [%] | inhibition at 1 µM (PDGFRβ) [%] | melting point [°C] | IC50 [2] [µM] | IC50 [3] [µM] | IC50 [4] [µM] | % Inhibition at 1 µM, HER2 (HER2) [%] | inhibition at 100 µM [1] [%]
Nc1ncnc2c1ncn2Cc1ccc(C(=O)Nc2cccc(C(F)(F)F)c2)cc1 [Compound 9, 4-((6-Amino-9H-purin-9-yl)methyl)-N-(3-(trifluoromethyl)phenyl)benzamide] | 39 | 34 | 11 | 0 | 0 | 0 | 0 | 2 | 45 | 36 |  |  |  |  |  | 56.8
Cc1cn(-c2cc(NC(=O)c3ccc(Cn4cnc5c(N)nc(F)nc54)cc3)cc(C(F)(F)F)c2)cn1 [Compound 11, 4-((6-Amino-2-fluoro-9H-purin-9-yl)methyl)-N-(3-(4-methyl-1H-imidazol-1-yl)-5-(trifluoromethyl)phenyl)benzamide] | 37 | 37 | 14 | 0 | 0 | 0 | 0 | 12 | 4 | 0 | 230 to 232 | 29.7 ± 1.19 |  |  |  | 93.4
Cc1ccc(NC(=O)c2ccc(CN3CCN(C)CC3)cc2)cc1Nc1nccc(-c2cccnc2)n1 [Imatinib, imatinib, reference compound] |  |  |  |  |  |  |  |  |  |  |  |  |  |  |  | 99
Nc1nc(F)nc2c1ncn2Cc1ccc(C(=O)Nc2cccc(C(F)(F)F)c2)cc1 [Compound 8, 4-((6-Amino-2-fluoro-9H-purin-9-yl)methyl)-N-(3-(trifluoromethyl)phenyl)benzamide] | 23 | 34 | 15 | 22 to 26 | 23 | 5 | 0 | 14 | 13 | 32 | 309 to 311 | > 50 |  |  | 26 | 33.5

Now from value to compound, other results behind:

inhibition at 0.5 µM (Bcr–Abl1 kinase) [%] | inhibition at 10 µM (Bcr–Abl1 kinase) [%] | inhibition at 1 µM (EGFR) [%] | inhibition at 1 µM (HER2) [%] | inhibition at 1 µM (HER4) [%] | inhibition at 1 µM (IGF1R) [%] | inhibition at 1 µM (InsR) [%] | inhibition at 1 µM (KDR (VEGFR-2)) [%] | inhibition at 1 µM (PDGFRα) [%] | inhibition at 1 µM (PDGFRβ) [%] | melting point [°C] | IC50 [2] [µM] | IC50 [3] [µM] | IC50 [4] [µM] | % Inhibition at 1 µM, HER2 (HER2) [%] | Structure (SMILES) | inhibition at 100 µM [1] [%]
15 | 36 | 13 | 0 | 0 | 0 | 0 | 12 | 17 | 6 |  |  |  |  |  | Cc1cn(-c2cc(NC(=O)c3ccc(Cn4cnc5c(N)nc(Cl)nc54)cc3)cc(C(F)(F)F)c2)cn1 [Compound 16, 4-((6-Amino-2-chloro-9H-purin-9-yl)methyl)-N-(3-(4-methyl-1H-imidazol-1-yl)-5-(trifluoromethyl)phenyl)benzamide] | 5.91
38 | 14 | 17 | 0 | 0 | 0 | 0 | 0 | 22 | 36 | 268 to 270 |  |  |  |  | Cc1cn(-c2cc(NC(=O)c3ccc(Cn4cnc5c(N)ncnc54)cc3)cc(C(F)(F)F)c2)cn1 [Compound 12, 4-((6-Amino-9H-purin-9-yl)methyl)-N-(3-(4-methyl-1H-imidazol-1-yl)-5-(trifluoromethyl)phenyl) benzamide] | 
 |  |  | 68 | 94 | 0 | 0 |  | 4 | 7 |  |  |  |  |  | CS(=O)(=O)CCNCc1ccc(-c2ccc3ncnc(Nc4ccc(OCc5cccc(F)c5)c(Cl)c4)c3c2)o1 [Lapatinib, lapatinib, reference compound] | 
 |  |  |  |  |  |  |  |  |  |  | 55 | < 0.1 | 55 |  | Cc1cn(-c2cc(NC(=O)c3ccc(C)c(Nc4nccc(-c5cccnc5)n4)c3)cc(C(F)(F)F)c2)cn1 [Nilotinib, nilotinib, reference compound] | 71
